Assay results as given in PMC9412414, “A Study on Repositioning Nalidixic Acid via Lanthanide Complexation: Synthesis, Characterization, Cytotoxicity and DNA/Protein Binding Studies” (Pharmaceuticals, 2022).

What was measured:
[1] = target: T1, human serum albumin (HSA) (Homo sapiens, UniProt P02768); experiment: HSA fluorescence quenching binding study; settings: for Ka (association binding constant), HSA / n1 (Number of Binding Sites), HSA / n2 (Hill Coefficient), HSA / Kd / fa (fraction of fluorophore accessible to the quencher), HSA / Kq (bimolecular quenching constant), HSA: 298 K; for Kd: read-out: Kd (dissociation constant), HSA; for Kq (bimolecular quenching constant), HSA: from Ksv* with τ0 = 10^−8 s
T1 construct: purchased Sigma-Aldrich Chemical Co. (Schnelldorf, Germany)
T1 sequence (P02768 25-609): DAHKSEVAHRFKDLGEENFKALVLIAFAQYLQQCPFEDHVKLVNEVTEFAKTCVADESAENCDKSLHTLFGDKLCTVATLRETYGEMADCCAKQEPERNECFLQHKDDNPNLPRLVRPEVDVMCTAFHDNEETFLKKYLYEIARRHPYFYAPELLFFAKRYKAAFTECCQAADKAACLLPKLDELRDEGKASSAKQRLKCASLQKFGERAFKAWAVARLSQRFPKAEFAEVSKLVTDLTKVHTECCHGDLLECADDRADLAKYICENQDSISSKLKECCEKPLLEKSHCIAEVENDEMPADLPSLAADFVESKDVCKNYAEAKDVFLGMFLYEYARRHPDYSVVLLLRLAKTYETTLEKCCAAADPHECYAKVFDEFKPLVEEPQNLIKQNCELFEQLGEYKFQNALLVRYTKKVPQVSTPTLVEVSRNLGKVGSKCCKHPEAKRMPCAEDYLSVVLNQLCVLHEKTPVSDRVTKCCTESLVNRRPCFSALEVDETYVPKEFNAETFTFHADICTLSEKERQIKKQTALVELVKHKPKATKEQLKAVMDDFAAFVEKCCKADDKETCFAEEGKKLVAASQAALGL
Procedure: (§1) Using a Jasco FP 6500 spectrofluorometer (Jasco, Tokyo, Japan) and quartz cells with a 1 cm path length, the fluorescence spectra of HSA and apo-Tf were recorded in the presence and absence of the examined substances. The 2.5 mL samples containing 2.5 µM HSA or 1 µM apo-Tf were titrated by adding 5 µL of the tested substance at a time, a volume that corresponded to a 1 µM increase in concentration. The concentration range used for these experiments varied from 0 to 8 µM. The relevant spectra were collected in the emission domains of 300–500 nm (HSA) and 305–500 nm (apo-Tf) after 3 min of continuous stirring at room temperature, using excitation wavelengths of 280 nm (HSA) and 295 nm (apo-Tf).
(§2) Experiments were conducted in a pH = 7.4 Tris-HCl buffer (5 mM Tris-HCl/50 mM NaCl for HSA and 5 mM Tris-HCl/50 mM NaCl/25 mM NaHCO3 for apo-Tf).
(§3) The following modified Stern–Volmer equation has been used to calculate the Stern–Volmer constant, which will be denoted as KSV* in order to differentiate it from the Stern–Volmer constant calculated for the DNA binding experiments:(5) F0/F0−F=1/faKsv*[Q]+1/fa where F0 and F are the fluorescence intensities in the absence and presence of the tested compounds, fa is the fraction of fluorophore accessible to the quencher (the tested compounds), [Q] is the quencher concentration, and KSV* (M^−1) is the Stern–Volmer constant; the plot of F0/(F0 − F) against 1/[Q] yields KSV as the slope and fa as the y intercept.
(§4) Subsequently, the bimolecular quenching rate constant was obtained by using Equation (6):(6) Ksv^*=Kqτ0
(§5) Kq (M^−1·s^−1) is the bimolecular quenching rate constant and τ0 is the fluorophore’s lifespan in the absence of the investigated chemicals (10^−8 s). The value of Kq can be used to assess whether the quenching phenomena have an underlying static or dynamic mechanism.
(§6) Using the following equation, the affinity constant (Ka) and the number of binding sites (n) have been calculated: (7) lgF0−F/F=lgKa+nlg[Q]
(§7) The binding affinity, Kd, can be calculated using the quadratic function below:(8) F0−F/F0−Fb=[P]t+[Q]+Kd−([P]t+[Q]+Kd)^2−4[P]t[Q]/2[P]t where F and F0 are the fluorescence intensities of the protein in the presence and absence of the quencher, respectively, Fb is the fluorescence of a fully bound protein–quencher, [P]t is the total concentration of the protein, and [Q] is the concentration of the added quencher. Each binding isotherm was plotted against the total quencher concentration in solution as a function of bound to free protein (F/F0).
(§8) The isotherms were then fitted using the nonlinear regression function below:(9) F/F0= F1+(F2−F1)Kdn/Kdn+[Q]^n where n represents the Hill coefficient, F1 and F2 are the horizontal and vertical asymptotes, respectively. The Kd in Equation (9) is derived from the quadratic binding function (Equation (8)).
(§9) Data were collected in triplicate, averaged, and expressed as mean value ± standard deviation (SD). All graph fitting models were defined and built using OriginPro® 2018.

EB–DNA system (CT-DNA) = experiment: Competitive binding assay with ethidium bromide (EB) through fluorescence spectroscopy; parameters: species or system calf; settings: EB 2 µM, CT-DNA 10 µM, compound 0–40 µM
Procedure: The fluorescence spectra were recorded using 1.6 mL samples containing 10 µM CT-DNA, 2 µM EB, and increasing amounts (0–40 µM with an increment of 5 µM) of tested compounds; the samples were prepared by keeping the components in contact for 10 min at room temperature, under continuous stirring and in the dark. The excitation wavelength was 500 nm, and the spectra were recorded between the wavelengths of 520 and 800 nm. A Jasco FP 6500 fluorometer and quartz cells with a 1 cm route length were employed. The classical Stern–Volmer equation (Equation (3)) was used to interpret the obtained data:(3) F0/F=1+KSV·[Q] F0 and F are the fluorescence intensities of the EB–DNA samples in the absence and presence of the tested compounds, respectively; KSV is the Stern–Volmer constant, which was computed as the slope from the plot of F0/F vs. [Q], where [Q] is the chemical concentration.
The binding ratio was plotted against the logarithm of the concentration in comparison with a control sample exposed solely to DMSO. (4) y=A1+(A2−A1)×x^n/K50^n+x^n
For fitting data points, the modified Hill function with offset (Origin®) was used: where y represents the binding ratio (F/F0), x represents the concentration, A1 represents the minimum of y values, A2 represents the maximum of y values, K50 represents the concentration corresponding to 50% binding or the half maximum binding constant, and n represents the Hill coefficient.

[2] = test system: LoVo (human colorectal adenocarcinoma) cell line; experiment: MTS cytotoxicity assay, LoVo cell line; type: cell-based; settings: 48 h of incubation
[3] = test system: HUVEC (human umbilical vein endothelial cells); experiment: MTS cytotoxicity assay, HUVEC normal cell line; type: cell-based; settings: 24 h of incubation
apotransferrin (apo-Tf) = target: T2, apotransferrin (apo-Tf) (Homo sapiens, UniProt P02787); experiment: Apo-Tf fluorescence quenching binding study; settings: for Kd: read-out: Kd (dissociation constant), Apo-Tf; for fa (fraction of fluorophore accessible to the quencher), Apo-Tf / Ksv* (Stern–Volmer quenching constant), Apo-Tf: compound 0–8 µM; for Ksv* (Stern–Volmer quenching constant), Apo-Tf: Tris-HCl pH 7.4, 298 K; for Kq (bimolecular quenching constant), Apo-Tf: from Ksv* with τ0 = 10^−8 s
T2 construct: purchased Sigma-Aldrich Chemical Co. (Schnelldorf, Germany)
T2 sequence (P02787 20-698): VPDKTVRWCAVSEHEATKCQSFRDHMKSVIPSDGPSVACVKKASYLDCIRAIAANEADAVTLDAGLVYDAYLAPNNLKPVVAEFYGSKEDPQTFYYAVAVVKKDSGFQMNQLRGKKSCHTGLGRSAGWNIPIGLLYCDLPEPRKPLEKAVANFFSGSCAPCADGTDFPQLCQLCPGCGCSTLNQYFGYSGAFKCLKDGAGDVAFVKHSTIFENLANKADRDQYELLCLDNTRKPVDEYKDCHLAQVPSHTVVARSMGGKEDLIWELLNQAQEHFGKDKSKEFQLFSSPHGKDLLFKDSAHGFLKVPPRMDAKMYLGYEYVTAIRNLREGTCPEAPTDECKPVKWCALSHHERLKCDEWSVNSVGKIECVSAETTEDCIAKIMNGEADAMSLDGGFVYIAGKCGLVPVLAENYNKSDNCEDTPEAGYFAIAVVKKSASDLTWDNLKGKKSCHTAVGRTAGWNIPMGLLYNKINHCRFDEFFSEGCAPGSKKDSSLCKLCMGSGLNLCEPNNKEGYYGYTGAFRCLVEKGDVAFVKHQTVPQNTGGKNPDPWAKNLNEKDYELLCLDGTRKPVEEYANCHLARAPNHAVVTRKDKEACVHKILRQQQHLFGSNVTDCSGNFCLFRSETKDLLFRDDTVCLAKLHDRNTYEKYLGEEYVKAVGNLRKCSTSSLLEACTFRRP
Procedure: as §1, §2, §3, §4, §5, §6, §7, §8, §9

Substance | Ka (association binding constant), HSA ([1]; HSA 2.5 µM) | n1 (Number of Binding Sites), HSA ([1]; HSA 2.5 µM) | n2 (Hill Coefficient), HSA ([1]; HSA 2.5 µM) | Kd ([1]; HSA 2.5 µM) | fa (fraction of fluorophore accessible to the quencher), HSA ([1]; HSA 2.5 µM, compound 0–8 µM) | Ksv* (Stern–Volmer quenching constant), HSA ([1]; HSA 2.5 µM, compound 0–8 µM, Tris-HCl pH 7.4, 298 K) | Kq (bimolecular quenching constant), HSA [1] | EB Displacement Assay K50 (half maximum binding constant) (EB–DNA system (CT-DNA)) | KSV, Stern–Volmer quenching constant (EB–DNA) (EB–DNA system (CT-DNA)) | IC50 [2] | IC50 [3] | Ka (association binding constant), Apo-Tf (apotransferrin (apo-Tf); apo-Tf 1 µM, 298 K) | n1 (Number of Binding Sites), Apo-Tf (apotransferrin (apo-Tf); apo-Tf 1 µM, 298 K) | n2 (Hill Coefficient), Apo-Tf (apotransferrin (apo-Tf); apo-Tf 1 µM, 298 K) | Kd (apotransferrin (apo-Tf); apo-Tf 1 µM, 298 K) | fa (fraction of fluorophore accessible to the quencher), Apo-Tf (apotransferrin (apo-Tf); apo-Tf 1 µM, 298 K) | Ksv* (Stern–Volmer quenching constant), Apo-Tf (apotransferrin (apo-Tf); apo-Tf 1 µM) | quenching effect on apo-Tf fluorescence peak (apotransferrin (apo-Tf); apo-Tf 1 µM, compound up to 8 µM) | Kq (bimolecular quenching constant), Apo-Tf (apotransferrin (apo-Tf); 298 K)
Eu(C12H11N2O3)3(H2O)2·2.5H2O [Eu(nal)3] | (21.59 ± 2.04) × 10^5 M^−1 | 1.13 ± 0.00 | 1.17 ± 0.27 | 2.67 ± 0.21 µM | 1.13 ± 0.01 | (2.89 ± 0.11) × 10^5 M^−1 | 2.89e+13 M⁻¹ s⁻¹ | 30.96 ± 10.85 µM | 9.62 ± 0.10 M^−1 (×10^3) | 26.9 ± 5.72 µM | > 200 µM | (2.25 ± 1.01) × 10^4 M^−1 | 0.84 ± 0.03 | 1.58 ± 0.23 | 3.85 ± 0.29 µM | 0.80 ± 0.02 | (2.21 ± 0.13) × 10^5 M^−1 | 48% | 2.21e+13 M⁻¹ s⁻¹
Tb(C12H11N2O3)3(H2O)2·1.5H2O [Tb(nal)3] | (31.26 ± 9.66) × 10^5 M^−1 | 1.18 ± 0.02 | 0.89 ± 0.35 | 4.61 ± 1.67 µM | 1.13 ± 0.02 | – | 2.39e+13 M⁻¹ s⁻¹ | 31.96 ± 10.16 µM | 8.35 ± 0.11 M^−1 (×10^3) | 25.6 ± 6.97 µM | 96.2 ± 48.8 µM | (1.63 ± 0.42) × 10^4 M^−1 | 0.83 ± 0.02 | – | 5.76 ± 2.6 µM | 0.68 ± 0.01 | (2.70 ± 0.11) × 10^5 M^−1 | – | 2.7e+13 M⁻¹ s⁻¹
